Measurements: patent US20230181673A1, “TRI-PEPTIDES AND TREATMENT OF METABOLIC, CARDIOVASCULAR AND INFLAMMATORY DISORDERS” (Diapin Therapeutics, LLC, priority 2018, published 2023)
Non-standard residues stand in square brackets, D forms with d. No end group written: not given here.

What was measured:
blood glucose = experiment: OGTT and non-fasting/endpoint blood glucose in WD-fed apoE−/− mice; type: in vivo; settings: for Endpoint glucose levels, lower by: following a 6 h fast, after 12 weeks, vs WD+H2O; for Non-fasting blood glucose 30 min post-gavage vs pre-gavage, decreased by: routine oral gavage, glycine 0.67, leucine 0.33, DT-109/DT-110 1 mg/g; for Acute OGTT: blood glucose 30 min after glucose with treatment / Acute OGTT: blood glucose at later time points (60-120 min): week 10, overnight fast, oral; for Acute OGTT: blood glucose 30 min after glucose with treatment: glucose 2 mg/g plus glycine 0.67, leucine 0.33, DT-109 or DT-110 1 mg/g; for Acute OGTT: blood glucose at later time points (60-120 min): glucose 2 mg/g plus treatment
Text: (§1) Eight-week-old male apolipoprotein E-deficient (apoE−/−) mice (B6.129P2-Apoetm1Unc/J, Stock No.: 002052) were obtained from Jackson Laboratories. Mice were fed Western diet (WD, 42% of calories from fat and 0.2% cholesterol by weight, Envigo TD.88137). After one week of WD feeding, blood was carefully collected from the facial vein to determine baseline plasma levels of total cholesterol (TC). […] All mice were maintained on a 12-hour light/dark cycle and had ad libitum access to food and water. Body weight and food intake were measured every one and three weeks, respectively
At week 10, oral glucose tolerance tests (OGTT) were performed following an overnight fast by administering 2 mg/g of glucose via oral gavage. […] To evaluate the chronic effects of the treatments, mice were administered with glucose alone. […] Then, mice were administered with glucose with (acute) or without (chronic) treatments and blood glucose levels were measured every 30 min for up to 120 min. To assess the effects of the treatments on non-fasting glucose levels, blood was collected from the tip of the tail before routine administration of treatments via oral gavage (pre-gavage) and 30 min afterwards (post-gavage).
OGTT were performed after 12 h fasting.

hepatic gene expression [1] = experiment: qPCR analysis of hepatic gene expression in WD-fed apoE−/− mice; type: in vivo; settings: for Hepatic expression of CCL2 / Hepatic expression of TNFα / Hepatic expression of key genes regulating FAO (PPARα, PNPLA2, CACT, CPT1a, ACADL): apoE−/− mice on WD, qPCR (FIG. 16D)
Text: as §1
(§2) Total RNA from liver or adipose tissue samples was extracted using QIAGEN's RNeasy kits (QIAGEN). RNA was reverse-transcribed into cDNA with SuperScript III and random primers (Invitrogen). Specific transcript levels were assessed by a real-time PCR system (Bio-Rad) using IQ SYBR Green Supermix (Bio-Rad) and the ΔΔCt threshold cycle method of normalization. Gene expression levels were normalized to glyceraldehyde 3-phosphate dehydrogenase (GAPDH). Primer pairs used for qPCR were obtained from Integrated DNA Technologies and are listed below:
as §2, with “from mouse” for “from”, “liver” for “liver or adipose tissue”, “glycerldehyde” for “glyceraldehyde”, “(GAPDH).” for “(GAPDH). Primer pairs used for qPCR were obtained from Integrated DNA Technologies and are listed below:”

ABCG8 = experiment: Western blot of hepatic ABCG8 in WD-fed apoE−/− mice; type: in vivo; settings: normalized to β-Actin
Text: as §1
The following primary antibodies were used: rabbit polyclonal anti-ABCG8 (Santa Cruz Biotechnology, sc-30111, working dilution 1:1000) and rabbit polyclonal anti-β-Actin (Cell signaling, 4967S, working dilution 1:3000). After TBST washing, membranes were incubated with secondary antibodies (LI-COR Biotechnology, donkey anti-rabbit IRDye 926-32213, 926-88073, working dilution 1:10000) for 1 hour at room temperature.

atherosclerotic lesions = experiment: Analysis of atherosclerotic lesions (Oil Red O, en face aorta) in WD-fed apoE−/− mice; type: in vivo; settings: apoE−/− mice on WD, 12 weeks; vs WD+H2O
Text: as §1
After collection of blood, the mice were perfused with 20 mL of saline solution through the heart, followed by 20 mL of 37% formalin. The mice were fixed with formalin and the whole aortic tree was dissected under a surgical microscope. Next, the aortic trees were stained with Oil Red O solution (0.2% Oil Red O (w/v) in 3.5:1 of methanol:1N NaOH) for 50 min, followed by 70% ethanol for 30 min. Aortic trees were then kept in DDW. The aortic trees were then cleared of adhering adipose and connective tissues, and longitudinally opened with Vannas scissors to expose the atherosclerotic lesions. Images of whole aortic trees were obtained using a digital camera, and the percentage of the plaque area stained by Oil Red O with respect to the total luminal surface area was quantified with ImageJ analysis software (http://imagej.nih.gov/ij/).

liver transcriptome = type: in vivo, mice; settings: for TGFβ signaling and ECM remodeling pathways/genes (RNA-sequencing) / Pro-inflammatory signaling regulator and cytokine genes (NFKB1/2, RELB, CCR1/2/5, TLR1/2/4, TNFRSF1A/9/12, TNFα, CCL2/5) / Key genes regulating FAO (PPARα, PGC1α, ACOX1, CPT2, ACADS/M/L, HADHA/B, ACOT3/4): NASH-diet; for TGFβ signaling and ECM remodeling pathways/genes (RNA-sequencing): liver; for Pro-inflammatory signaling regulator and cytokine genes (NFKB1/2, RELB, CCR1/2/5, TLR1/2/4, TNFRSF1A/9/12, TNFα, CCL2/5) / Key genes regulating FAO (PPARα, PGC1α, ACOX1, CPT2, ACADS/M/L, HADHA/B, ACOT3/4): RNA-sequencing; for Key genes regulating FAO (PPARα, PGC1α, ACOX1, CPT2, ACADS/M/L, HADHA/B, ACOT3/4): confirmed by qPCR and Western blot
Method: Library preparation and sequencing were performed by the U-M DNA Sequencing Core on a NovaSeq 6000 Sequencing System (Illumina). RNA-sequencing and pathway analyses were performed as described.
Total RNA from mouse liver samples was extracted as described above. Library preparation and sequencing were performed by the University of Michigan DNA Sequencing Core. RNA was assessed for quality using the TapeStation (Agilent, Santa Clara, Calif.). […] Samples were prepped using the NEBNext Ultra II Directional RNA Library Prep Kit for Illumina (NEB, E7760L) with Poly(A) mRNA Magnetic Isolation Module (NEB, E7490L) and NEBNext Multiplex Oligos for Illumina Unique dual (NEB, E6440L), where 10 ng-1 μg of total RNA were subjected to mRNA polyA purification. The mRNA was then fragmented and copied into first strand cDNA using reverse transciptase and dUTP mix. Samples underwent end repair and dA-Tailing step followed by ligation of NEBNext adapters. The products were purified and enriched by PCR to create the final cDNA library. Final libraries were checked for quality and quantity by TapeStation (Agilent) and qPCR using Kapa's library quantification kit for Illumina Sequencing platforms (Kapa Biosystems, KK4835). Libraries were paired-end sequenced on a […] Sequencing System (Illumina).
The quality of the raw Fastq files was checked through FastQC v0.11.8 (https://www.bioinformaties.babraham.ac.uk/projects/fastqc/). Trimmomatic v.0.35 was used to trim the low-quality reads with the parameters: SLIDINGWINDOW:4:20 MINLEN:25.12 The resulted high-quality reads were then mapped to the mouse reference genome (GRCm38.90) using HISAT2 v.2.1.0.13 Gene level quantification was performed using HTSeq-counts v0.6.0 based on the GRCm38.90 genome annotations.14 The R package DESeq2 was then used to identify significant differentially expressed genes. 15 We considered genes with adjusted P value less than 0.05 and absolute fold change larger than 2 as significant differentially expressed genes (DEGs). […] 16 The significance of the enrichment was determined by right-tailed Fisher's exact test followed by Benjamini-Hochberg multiple testing adjustment.
(§3) Mice fed CD and administered H2O served as control.

hepatic gene expression [2] = type: in vivo, mice; settings: NASH-diet, liver
Method: as §2, with “from mouse” for “from”, “liver” for “liver or adipose tissue”, “glycerldehyde” for “glyceraldehyde”, “(GAPDH).” for “(GAPDH). Primer pairs used for qPCR were obtained from Integrated DNA Technologies and are listed below:”
as §3

Gly-Gly-Leu [DT-109]
Glucose-lowering in OGTT and in non-fasting glucose (blood glucose; apoE−/− mice on WD, after 10 weeks, DT-109 1 mg/g/day vs equivalent leucine, glycine or H2O): most potent glucose-lowering effects | Endpoint glucose levels, lower by (blood glucose): 30% | Non-fasting blood glucose 30 min post-gavage vs pre-gavage, decreased by (blood glucose): 21% | Acute OGTT: blood glucose 30 min after glucose with treatment (blood glucose): most significant effects | Acute OGTT: blood glucose at later time points (60-120 min) (blood glucose): significantly decreased | Hepatic expression of CCL2 (hepatic gene expression [1]): downregulation | Hepatic expression of TNFα (hepatic gene expression [1]): without significant changes | Hepatic expression of key genes regulating FAO (PPARα, PNPLA2, CACT, CPT1a, ACADL) (hepatic gene expression [1]): upregulation | Hepatic expression of ABCG5 and ABCG8 (hepatic gene expression [1]; liver, endpoint, qPCR): significantly increased | Hepatic expression of AMPKα1 and PPARα (hepatic gene expression [1]; liver, endpoint, qPCR): significantly induced | Hepatic expression of PNPLA2, CPT1a, CACT, ACADI and UCP2 (hepatic gene expression [1]; liver, endpoint, qPCR): significantly upregulated | ABCG8 protein in liver (Western blot) (ABCG8): Overexpression | Total atherosclerotic plaques (en face aortic lesions, Oil Red O), reduction by (atherosclerotic lesions): 62% | Pathway analysis, NASH-diet H2O control vs treatment (liver transcriptome; DT-109 0.5 mg/g/day): reversed NASH-diet-induced alterations in underlying pathways | TGFβ signaling and ECM remodeling pathways/genes (RNA-sequencing) (liver transcriptome): attenuated | Pro-inflammatory signaling regulator and cytokine genes (NFKB1/2, RELB, CCR1/2/5, TLR1/2/4, TNFRSF1A/9/12, TNFα, CCL2/5) (liver transcriptome): attenuated | Key genes regulating FAO (PPARα, PGC1α, ACOX1, CPT2, ACADS/M/L, HADHA/B, ACOT3/4) (liver transcriptome): reversed | NFKB2, RELB and TNFα expression (qPCR) (hepatic gene expression [2]): significantly downregulated | TGFβ-related genes (qPCR) (hepatic gene expression [2]): attenuated | CCL2, CCR2 and CCR5 expression (qPCR) (hepatic gene expression [2]; 0.5 mg/g/day DT-109): downregulated

NCC(=O)O [glycine, reference compound]
Endpoint glucose levels, lower by (blood glucose): 41% | Non-fasting blood glucose 30 min post-gavage vs pre-gavage, decreased by (blood glucose): 10% | Acute OGTT: blood glucose 30 min after glucose with treatment (blood glucose): most significant effects | Acute OGTT: blood glucose at later time points (60-120 min) (blood glucose): significantly decreased | Hepatic expression of CCL2 (hepatic gene expression [1]): downregulation | Hepatic expression of TNFα (hepatic gene expression [1]): without significant changes | Hepatic expression of key genes regulating FAO (PPARα, PNPLA2, CACT, CPT1a, ACADL) (hepatic gene expression [1]): upregulation | Hepatic expression of ABCG5 and ABCG8 (hepatic gene expression [1]; liver, endpoint, qPCR): significantly increased | Hepatic expression of AMPKα1 and PPARα (hepatic gene expression [1]; liver, endpoint, qPCR): significantly induced | Hepatic expression of PNPLA2, CPT1a, CACT, ACADI and UCP2 (hepatic gene expression [1]; liver, endpoint, qPCR): significantly upregulated | Hepatic expression of genes regulating gluconeogenesis (G6pc, PCK1 and FBP1) (hepatic gene expression [1]; liver, endpoint, qPCR): no significant change | Hepatic expression of genes regulating glucose uptake (GLUT1, GLUT2 and GLUT4) (hepatic gene expression [1]; liver, endpoint, qPCR): upregulated | MCP1 expression in the liver (hepatic gene expression [1]; liver, endpoint, qPCR): suppressed | ABCG8 protein in liver (Western blot) (ABCG8): Overexpression | Total atherosclerotic plaques (en face aortic lesions, Oil Red O), reduction by (atherosclerotic lesions): 48% | TGFβ signaling and ECM remodeling pathways/genes (RNA-sequencing) (liver transcriptome): attenuated | Pro-inflammatory signaling regulator and cytokine genes (NFKB1/2, RELB, CCR1/2/5, TLR1/2/4, TNFRSF1A/9/12, TNFα, CCL2/5) (liver transcriptome): attenuated | Key genes regulating FAO (PPARα, PGC1α, ACOX1, CPT2, ACADS/M/L, HADHA/B, ACOT3/4) (liver transcriptome): reversed | NFKB2, RELB and TNFα expression (qPCR) (hepatic gene expression [2]): significantly downregulated

CC(C)C[C@H](N)C(=O)O [leucine]
Non-fasting blood glucose 30 min post-gavage vs pre-gavage, decreased by (blood glucose): trends towards increased blood glucose | Total atherosclerotic plaques (en face aortic lesions, Oil Red O), reduction by (atherosclerotic lesions): but not in mice treated with leucine | Pro-inflammatory signaling regulator and cytokine genes (NFKB1/2, RELB, CCR1/2/5, TLR1/2/4, TNFRSF1A/9/12, TNFα, CCL2/5) (liver transcriptome): upregulated | Key genes regulating FAO (PPARα, PGC1α, ACOX1, CPT2, ACADS/M/L, HADHA/B, ACOT3/4) (liver transcriptome): suppressed | TGFβ-related genes (qPCR) (hepatic gene expression [2]): markedly upregulated

Gly-Gly-[dL] [DT-110]
Non-fasting blood glucose 30 min post-gavage vs pre-gavage, decreased by (blood glucose): 13% | Acute OGTT: blood glucose at later time points (60-120 min) (blood glucose): significantly decreased | Hepatic GLUT1 expression (hepatic gene expression [1]; liver, endpoint, qPCR): markedly induced | Hepatic expression of ABCG5 and ABCG8 (hepatic gene expression [1]; liver, endpoint, qPCR): significantly increased | Hepatic expression of AMPKα1 and PPARα (hepatic gene expression [1]; liver, endpoint, qPCR): significantly induced | Hepatic expression of LDLR (hepatic gene expression [1]; liver, endpoint, qPCR): significant upregulation | Hepatic expression of PNPLA2, CPT1a, CACT, ACADI and UCP2 (hepatic gene expression [1]; liver, endpoint, qPCR): significantly upregulated | ABCG8 protein in liver (Western blot) (ABCG8): Overexpression | Total atherosclerotic plaques (en face aortic lesions, Oil Red O), reduction by (atherosclerotic lesions): 49%
